Measurements as given in ChEMBL document CHEMBL1201862, “PubChem BioAssay data set” (2004).
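Growth conditions: 96-well plates. Treatment: test compound, 48 hours, 5 concentrations. Analysis: linear interpolation between bracketing concentrations; unreached endpoints set to highest concentration. Here, GI50 denotes the concentration required for 50% inhibition of growth.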 Active and inactive are the calls of the source. No stated cut-off is given here; in the data, active = GI50 up to about 1.1 µM and inactive = higher.

What was measured:
Test in all cases: inhibition of tumour cell growth, NCI panel, 48 h
[1] = tested on: 786-0
[2] = tested on: A498
[3] = tested on: A549
[4] = tested on: ACHN
[5] = tested on: BT-549
[6] = tested on: CAKI-1
[7] = tested on: CCRF-CEM
[8] = tested on: COLO 205
[9] = tested on: DU-145
[10] = tested on: EKVX
[11] = tested on: HCT-116
[12] = tested on: HCT-15
[13] = tested on: HL-60
[14] = tested on: HOP-62
[15] = tested on: HT-29
[16] = tested on: Hs-578T
[17] = tested on: IGROV-1
[18] = tested on: K562
[19] = tested on: KM12
[20] = tested on: LOX IMVI
[21] = tested on: M14
[22] = tested on: MCF7
[23] = tested on: MDA-MB-231
[24] = tested on: MDA-MB-435
[25] = tested on: MOLT-4
[26] = tested on: Malme-3M
[27] = tested on: NCI-H226
[28] = tested on: NCI-H23
[29] = tested on: NCI-H460
[30] = tested on: NCI-H522
[31] = tested on: NCI/ADR-RES
[32] = tested on: OVCAR-3
[33] = tested on: OVCAR-4
[34] = tested on: OVCAR-5
[35] = tested on: OVCAR-8
[36] = tested on: PC-3
[37] = tested on: RPMI-8226
[38] = tested on: RXF 393
[39] = tested on: SF-268
[40] = tested on: SF-295
[41] = tested on: SF-539
[42] = tested on: SK-MEL-28
[43] = tested on: SK-MEL-2
[44] = tested on: SK-MEL-5
[45] = tested on: SK-OV-3
[46] = tested on: SN12C
[47] = tested on: SNB-19
[48] = tested on: SNB-75
[49] = tested on: SR
[50] = tested on: SW-620
[51] = tested on: T47D
[52] = tested on: TK-10
[53] = tested on: U-251
[54] = tested on: UACC-257
[55] = tested on: UACC-62
[56] = tested on: UO-31

COc1cc2nc(-c3cccs3)nc(Nc3cccc([N+](=O)[O-])c3)c2cc1OC
GI50 [1]: 21.3 µM (inactive) | GI50 [2]: > 100 µM (inactive) | GI50 [3]: 21.1 µM (inactive) | GI50 [4]: 15.7 µM (inactive) | GI50 [5]: 19.5 µM (inactive) | GI50 [6]: 21.9 µM (inactive) | GI50 [7]: 31.5 µM (inactive) | GI50 [8]: 19.3 µM (inactive) | GI50 [9]: 16.3 µM (inactive) | GI50 [10]: 15.3 µM (inactive) | GI50 [11]: 17.8 µM (inactive) | GI50 [12]: 16.5 µM | GI50 [13]: 43.4 µM (inactive) | GI50 [14]: 18.7 µM (inactive) | GI50 [15]: 28.1 µM (inactive) | GI50 [16]: 26.9 µM (inactive) | GI50 [17]: 17.3 µM (inactive) | GI50 [18]: 39 µM (inactive) | GI50 [19]: 17.9 µM (inactive) | GI50 [20]: 18.4 µM (inactive) | GI50 [21]: 17 µM (inactive) | GI50 [22]: 24.9 µM (inactive) | GI50 [23]: 18 µM (inactive) | GI50 [24]: 17 µM (inactive) | GI50 [25]: 24.9 µM (inactive) | GI50 [26]: 18.9 µM (inactive) | GI50 [27]: 18.2 µM (inactive) | GI50 [28]: 11 µM (inactive) | GI50 [29]: 26.3 µM (inactive) | GI50 [30]: 17.6 µM (inactive) | GI50 [31]: 20.8 µM (inactive) | GI50 [32]: 20.7 µM (inactive) | GI50 [33]: 30.9 µM (inactive) | GI50 [34]: 17.8 µM (inactive) | GI50 [35]: 21.5 µM (inactive) | GI50 [36]: 19.6 µM (inactive) | GI50 [37]: 28.1 µM (inactive) | GI50 [38]: 25.9 µM (inactive) | GI50 [39]: 20.3 µM (inactive) | GI50 [40]: 21.6 µM (inactive) | GI50 [41]: 18.2 µM (inactive) | GI50 [42]: 23.7 µM (inactive) | GI50 [43]: 20.7 µM (inactive) | GI50 [44]: 29.2 µM (inactive) | GI50 [45]: 20.3 µM (inactive) | GI50 [46]: 17.4 µM (inactive) | GI50 [47]: 17.6 µM (inactive) | GI50 [48]: 29 µM (inactive) | GI50 [49]: 10.8 µM (inactive) | GI50 [50]: 24.2 µM (inactive) | GI50 [51]: 16.4 µM (inactive) | GI50 [52]: 20.8 µM (inactive) | GI50 [53]: 17.3 µM (inactive) | GI50 [54]: 21.6 µM (inactive) | GI50 [55]: 16.8 µM (inactive) | GI50 [56]: 19.2 µM (inactive)
